This is an account of results in publication PMC11696429 (ACS Omega, 2024).

What all share (type): binding
For assay [1], the target named is T1, integrin αvβ3 (Homo sapiens, UniProt P05106+P06756). The note with it: for IC50: IC50 (competitive displacement), day 7, competitor [^125I]I-echistatin.
For assay [2], the target named is T1, integrin αvβ3.
The target in assay [3] is T1, integrin αvβ3. The source holds these as a separate data set.

Read-outs that look alike come from different tables or passages of the source.

As for `N=C(N)NCCC[C@@H]1NC(=O)[C@H](CCCCNC(=O)CCOCCOCCOCCOCCOCCOCCNC(=O)CC[C@H](C(=O)O)N2CCN(CC(=O)O)CCN(CC(=O)O)CC2)NC(=O)[C@@H](Cc2ccccc2)NC(=O)[C@H](CC(=O)O)NC(=O)CNC1=O` [NODAGA-PEG5-c(RGDfK), NODAGA-PEG5-c(Arg-Gly-Asp-D-Phe-Lys)], the concentration for half-maximal inhibition (IC50) on integrin αvβ3 [1] (U87MG spheroids generated with collagen-1 supplementation) came out at 20.5 ± 4.41 µM; on integrin αvβ3 [1] (U87MG spheroids generated without supplementation), 16.5 ± 2.88 µM; against integrin αvβ3 [2], 3.08 ± 0.12 µM; at integrin αvβ3 [3] it was 10.4 ± 0.89 µM. Besides, on integrin αvβ3 [1] (IC50 in 3D U87MG spheroids vs 2D monolayer cell system), the “reduced interaction in 3D spheroids compared to 2D monolayer (fold)” value is 5–7 fold. Further, the “change of IC50 value by BME” value on integrin αvβ3 [3] (2D monolayer with BME vs without BME supplementation) was “triplication”.

As a reminder, the IC50 is the midpoint of a concentration-inhibition curve.
